Experimental data published in US20230277632A1, “MODIFIED PlySs2 LYSINS AND ANTIBIOTIC COMBINATIONS FOR USE AGAINST GRAM-POSITIVE BACTERIA” (ContraFect Corporation, priority 2020, published 2023).
Like-named read-outs stand apart in the source and are kept apart here.

Test system: MSSA strains
Test: Checkerboard assay: pp296 or CF-301 with oxacillin
Type: cell-based, Staphylococcus aureus
Conditions: for MIC: Staphylococcus aureus, read-out: Single agent MICs; for FIC / MIC in combination: pp296 + oxacillin; for MIC in combination: unit assumed; for ΣFICmin: with oxacillin
Description: In some embodiments, the present modified lysin polypeptides reduce the minimum inhibitory concentration (MIC) of an antibiotic. Any known method to assess MIC may be used. In some embodiments, a checkerboard assay is used to determine the effect of a lysin on antibiotic concentration. The checkerboard assay is based on a modification of the CLSI method for MIC determination by broth microdilution (See Clinical and Laboratory Standards Institute (CLSI), CLSI. 2015. Methods for Dilution Antimicrobial Susceptibility Tests for Bacteria That Grow Aerobically; Approved Standard-10th Edition. Clinical and Laboratory Standards Institute, Wayne, Pa., which is herein incorporated by reference in its entirety and Ceri et al. 1999. J. Clin. Microbiol. 37: 1771-1776, which is also herein incorporated by reference in its entirety).
Checkerboards are constructed by first preparing columns of e.g., a 96-well polypropylene microtiter plate, wherein each well has the same amount of antibiotic diluted 2-fold along the horizontal axis. […] The lysin and antibiotic dilutions are then combined, so that each column has a constant amount of antibiotic and doubling dilutions of lysin, while each row has a constant amount of lysin and doubling dilutions of antibiotic. Each well thus has a unique combination of lysin and antibiotic. Bacteria are added to the drug combinations at a given concentration. […] Summation fractional inhibitory concentrations (ΣFICs) are calculated for each drug and the minimum ΣFIC value (ΣFICmin) is used to determine the effect of the lysin/antibiotic combination.
The ability of CF-301 or a modified lysin polypeptide pp296 to synergize with oxacillin was assessed using a checkerboard analysis. For the checkerboard assay, a total of 50 μl of Mueller-Hinton broth is distributed into each well of microdilution plates. Then, a first antibiotic of a combination is serially diluted along the ordinate, while a second drug is diluted along the abscissa. An inoculum equal to a 0.5 McFarland turbidity standard is prepared from each bacterial isolate in Mueller-Hinton broth. Each microtiter well is then inoculated with 100 μl of a bacterial inoculum of 5×10^5 CFU/ml, and the plates are incubated at 37° C. for 18 h under aerobic conditions. The resulting checkerboard contains each combination of two antibiotics, with wells that contain the highest concentration of each antibiotic at opposite corners. […] To quantify the interactions between the antibiotics being tested, the FIC index (the combination of antibiotics that produced the greatest change from the individual antibiotic's MIC) value is calculated for each strain and antibiotic combination as follows:
(A/MICA)+(B/MICB)=FICA+FICB=FIC index,
where A and B are the MIC of each agent in combination in a single well, and MICA and MICB are the MIC of each drug when used individually. The combination is considered strongly synergistic when the FIC index is ≤0.5 and synergistic when the FIC index is >0.5-<1.

With `Cc1onc(-c2ccccc2)c1C(=O)N[C@@H]1C(=O)N2[C@@H]1SC(C)(C)[C@@H]2C(=O)O` [Oxacillin, oxacillin] the MIC (ATCC 29213 / MSSA, MSSA ATCC 29213) was 0.5 µg/mL, the MIC (MSSA, MSSA JMI-6625) was 1 µg/mL and the MIC (MSSA, MSSA JMI-6885) was 1 µg/mL. The MIC (MSSA, MSSA JMI-6886) was 1 µg/mL, the MIC (MSSA, MSSA JMI-7054) was 1 µg/mL and the MIC (MSSA, MSSA JMI-7160) was 1 µg/mL. For the same molecule, the MIC (MSSA, MSSA JMI-38739) was 0.5 µg/mL, the MIC (MSSA, MSSA JMI-38986) was 0.5 µg/mL and the MIC (MSSA, MSSA JMI-40671) was 0.5 µg/mL. For the same molecule, the MIC (MSSA, MSSA JMI-46142) was 0.5 µg/mL, the FIC (MSSA ATCC 29213) was 0.25 and the MIC in combination (MSSA ATCC 29213) was 0.125 µg/mL. The FIC (MSSA JMI-6625) was 0.25, the MIC in combination (MSSA JMI-6625) was 0.25 µg/mL and the FIC (MSSA JMI-6885) was 0.125. For the same molecule, the MIC in combination (MSSA JMI-6885) was 0.125 µg/mL, the FIC (MSSA JMI-6886) was 0.25 and the MIC in combination (MSSA JMI-6886) was 0.25 µg/mL. For the same molecule, the FIC (MSSA JMI-7054) was 0.25, the MIC in combination (MSSA JMI-7054) was 0.25 µg/mL and the FIC (MSSA JMI-7160) was 0.25. It also gave an MIC in combination (MSSA JMI-7160) of 0.25 µg/mL, an FIC (MSSA JMI-38739) of 0.25 and an MIC in combination (MSSA JMI-38739) of 0.125 µg/mL. It also gave an FIC (MSSA JMI-38986) of 0.25, an MIC in combination (MSSA JMI-38986) of 0.125 µg/mL and an FIC (MSSA JMI-40671) of 0.125. The MIC in combination (MSSA JMI-40671) was 0.0625 µg/mL, the FIC (MSSA JMI-46142) was 0.25 and the MIC in combination (MSSA JMI-46142) was 0.125 µg/mL.

B1: CF-301: Lysin CF-301, comparator lysin in the oxacillin checkerboard analysis (protein)
chain: MTTVNEALNNVRAQVGSGVSVGNGECYALASWYERMISPDATVGLGAGVGWVSGAIGDTISAKNIGSSYNWQANGWTVSTSGPFKAGQIVTLGATPGNPYGHVVIVEAVDGDRLTILEQNYGGKRYPVRNYYSAASYRQQVVHYITPPGTVAQSAPNLAGSRSYRETGTMTVTVDALNVRRAPNTSGEIVAVYKRGESFDYDTVIIDVNGYVWVSYIGGSGKRNYVATGATKDGKRFGNAWGTFK
Molecule B1 has a ΣFICmin (MSSA ATCC 29213) of 0.5, a ΣFICmin (MSSA JMI-6625) of 0.375 and a ΣFICmin (MSSA JMI-6885) of 0.5. For the same molecule, the ΣFICmin (MSSA JMI-6886) was 0.5, the ΣFICmin (MSSA JMI-7054) was 0.5 and the ΣFICmin (MSSA JMI-7160) was 0.5. For the same molecule, the ΣFICmin (MSSA JMI-38739) was 0.5, the ΣFICmin (MSSA JMI-38986) was 0.375 and the ΣFICmin (MSSA JMI-40671) was 0.3125. It also gave a ΣFICmin (MSSA JMI-46142) of 0.375.
